Tested on: participants with T1D
Assay: Randomized crossover clinical trial (NCT04201496): CGM glycemic outcomes with 5 mg daily empagliflozin adjunctive to AID (Control-IQ, CIQ) or PLGS (Basal-IQ, BIQ)
Assay type: in vivo, human
Conditions: for % CGM time <50 mg/dL (<2.8 mmol/L) / % CGM time <60 mg/dL (<3.3 mmol/L) / % CGM time <70 mg/dL (<3.9 mmol/L) / % CGM time >180 mg/dL (>10.0 mmol/L) / % CGM time >250 mg/dL (>13.9 mmol/L) / % CGM time >300 mg/dL (>16.7 mmol/L) / CGM HBGI / CGM LBGI: median (IQR)
Procedure: FIG. 2 presents a study analysis relative to baseline, control IQ (CIQ) (e.g., AID), and basal IQ (BIQ) (e.g., PLGS) implementation, according to investigation that is demonstrable of one or more embodiments herein. Therein, an experimental arm (G1, G2) providing an initial daily dose of 5 mg empagliflozin (EMPA) is depicted against a control arm (G3, G4) without such dosing (NOEMPA). Relative characteristics of the analysis are provided below.
Study Design: A single-center, randomized, controlled, unblinded, crossover clinical trial (NCT04201496) compared four parallel groups, two groups in the experimental arm (EMPA) with 5 mg daily empagliflozin as adjunctive therapy to PLGS or AID, and two groups in the control arm (NOEMPA) with no drug and with a PLGS system (Basal-IQ, Tandem Diabetes Care) or AID system (Control-IQ, Tandem Diabetes Care). The groups within each arm differed from one another in the order of the randomly assigned crossover technological intervention, relative to PLGS being followed by AID or AID being followed by PLGS, respectively (FIG. 4). The study protocol was approved by the University of Virginia Institutional Review Board (IRB). An investigational device exemption (IDE), including an investigational new drug (IND) application for empagliflozin, was approved by the FDA. Safety aspects were overseen by an external data and safety monitoring board (DSMB). Participants: Major inclusion criteria were T1D treated with insulin for at least one year, use of continuous subcutaneous insulin infusion therapy for at least six months, age 18-65 yrs., no use of glucose lowering agents other than insulin, and Hb1Ac<9% (75 mmol/mol). Randomization: A (1:1:1:1) randomization assigned participants to either Group 1, AID-EMPA (4 weeks) followed by PLGS-EMPA (2 weeks), Group 2, PLGS-EMPA (2 weeks) followed by AID-EMPA (4 weeks), Group 3, AID-NOEMPA (4 weeks) followed by PLGS-NOEMPA (2 weeks), and Group 4, PLGS-NOEMPA (2 weeks) followed by AID-NOEMPA (4 weeks). Procedures: After confirmation of eligibility, participants underwent study equipment and medication training (experimental arm), or only study equipment training (control arm). Study equipment consisted of Dexcom G6® CGM (Dexcom Inc., San Diego, CA), Contour® Next blood glucose (Ascensia Diabetes Care, Basel, Switzerland) and Precision Xtra® blood ketone meters (Abbott, Alameda, CA) with their respective test strips; infusion sets, and the use of the t:slim X2™ insulin pump with Basal-IQ or Control-IQ technologies (Tandem Diabetes Care, San Diego, CA), according to randomization. […] Participants in the experimental arm were asked to record two days of baseline ketone values before initiating the use of the study drug. Thereafter, participants were directed to use the study CGM with EMPA for 1-2 weeks. A tolerance to the medication was assessed prior to the starting of the next study phase, including adherence to the protocol, ketone testing 2-4 times per day with monitored values not greater than 0.6 mmol/L on at least two successive occasions (the first testing upon waking in a fasted state), no adverse events relating to perineal infection or symptomatic postural hypotension, and no evidence of significant hypoglycemia <54 mg/dL, or any other listed adverse effects of the medication. Participants in the control arm were directed to use the study CGM for 1-2 weeks. Sample Size: The total sample size was projected to be 40 participants, assuming 1) 1:1:1:1 randomization; 2) 90% power and type 1 error a=0.01, further reinforcing the feasibility of hierarchical analyses. The projected recruitment sample was n=50, to accommodate up to 20% attrition rate without sacrificing statistical power. Analytical methods: For the primary analysis, TIR during the day in the 4-week AID period was compared between the two EMPA groups versus the two NOEMPA groups using a linear mixed-effects regression model while adjusting for pre-randomization HbAlc and age. […]

[1] = overall, CIQ-EMPA vs. CIQ-NOEMPA, BIQ-EMPA vs. BIQ-NOEMPA
[2] = overall, PLGS-EMPA (see Tables 4 and 5)
[3] = overnight, CIQ-EMPA vs. BIQ-NOEMPA, BIQ-EMPA vs. CIQ-NOEMPA
[4] = overnight, CIQ-EMPA vs. CIQ-NOEMPA, BIQ-EMPA vs. BIQ-NOEMPA
[5] = overnight, PLGS-EMPA compared to PLGS-NOEMPA

OC[C@H]1O[C@@H](c2ccc(Cl)c(Cc3ccc(O[C@H]4CCOC4)cc3)c2)[C@H](O)[C@@H](O)[C@@H]1O [BIQ-EMPA, empagliflozin]
Difference: CGM LBGI (overall, CIQ-EMPA vs. BIQ-NOEMPA, BIQ-EMPA vs. CIQ-NOEMPA): 0.2 | Difference: CGM HBGI [1]: −4.3 | Difference: CGM LBGI [1]: 0.1 | Difference: CGM SD [1]: -14.3 mg/dL | decrease in mean glucose overall [2]: 24 mg/dL | decrease in percent time in hyperglycemia [2]: 18.6% | % CGM time <70-140 mg/dL (<3.9-7.8 mmol/L) (overall, n = 16, mean ± SD): 56.8 ± 16.5% | % CGM time <70-180 mg/dL (<3.9-10.0 mmol/L) (overall, n = 16, mean ± SD): 79 ± 15.7% | CGM CV (%) (overall, n = 16, mean ± SD): 32.1 ± 3.7% | CGM SD (overall, n = 16, mean ± SD): 46 ± 14.6 mg/dL | % CGM time <50 mg/dL (<2.8 mmol/L) (overall, n = 16): 0(0-0.4) % | % CGM time <60 mg/dL (<3.3 mmol/L) (overall, n = 16): 0.5(0.2-0.9) % | % CGM time <70 mg/dL (<3.9 mmol/L) (overall, n = 16): 1.7(0.9-2.7) % | % CGM time >180 mg/dL (>10.0 mmol/L) (overall, n = 16): 15(6.7-22.7) % | % CGM time >250 mg/dL (>13.9 mmol/L) (overall, n = 16): 1.7(0.2-3.6) % | % CGM time >300 mg/dL (>16.7 mmol/L) (overall, n = 16): 0.2(0-0.6) % | CGM HBGI (overall, n = 16): 3.3(1.8-4.7) | CGM LBGI (overall, n = 16): 0.7(0.6-1) | Difference (95% CI): % CGM time <50 mg/dL (<2.8 mmol/L) [3]: −0.4 percentage points | Difference (95% CI): % CGM time >180 mg/dL (>10.0 mmol/L) [3]: −5.1 percentage points | Difference (95% CI): % CGM time >300 mg/dL (>16.7 mmol/L) [3]: −0.3 percentage points | Difference (95% CI): CGM CV (%) [3]: −3.1% | Difference (95% CI): CGM HBGI [3]: −1.1 | Difference (95% CI): CGM LBGI [3]: 0.3 | Difference (95% CI): CGM SD [3]: -8.2 mg/dL | Difference (95% CI): Mean CGM glucose [3]: -9.8 mg/dL | Difference (95% CI): % CGM time >180 mg/dL (>10.0 mmol/L) [4]: −18.2 percentage points | Difference (95% CI): % CGM time >250 mg/dL (>13.9 mmol/L) [4]: −13.9 percentage points | Difference (95% CI): % CGM time >300 mg/dL (>16.7 mmol/L) [4]: −4.8 percentage points | Difference (95% CI): CGM HBGI [4]: −6.2 | Difference (95% CI): CGM LBGI [4]: 0.2 | Difference (95% CI): CGM SD [4]: -17.2 mg/dL | decrease in time in hyperglycemia [5]: 7.6% | increase in percent TIR [5]: 17% | % CGM time 70-140 mg/dL (3.9-7.8 mmol/L) (overnight, n = 16, mean ± SD): 54 ± 21% | % CGM time 70-180 mg/dL (3.9-10.0 mmol/L) (overnight, n = 16, mean ± SD): 76 ± 21% | CGM CV (%) (overnight, n = 16, mean ± SD): 30.5 ± 4.2% | CGM SD (overnight, n = 16, mean ± SD): 44.5 ± 14 mg/dL | Mean CGM glucose (overnight, n = 16, mean ± SD): 145 ± 41 mg/dL | % CGM time <50 mg/dL (<2.8 mmol/L) (overnight, n = 16): 0(0-0.5) % | % CGM time <60 mg/dL (<3.3 mmol/L) (overnight, n = 16): 0.5(0.1-1.1) % | % CGM time <70 mg/dL (<3.9 mmol/L) (overnight, n = 16): 1.5(0.4-2.7) % | % CGM time >180 mg/dL (>10.0 mmol/L) (overnight, n = 16): 16.2(7-30.8) % | % CGM time >250 mg/dL (>13.9 mmol/L) (overnight, n = 16): 0.1(0-2.4) % | % CGM time >300 mg/dL (>16.7 mmol/L) (overnight, n = 16): 0(0-0.2) % | CGM HBGI (overnight, n = 16): 3.3(2.1-5.2) | CGM LBGI (overnight, n = 16): 0.7(0.4-1.4) | night-time in range, h out of 8 h (overnight, out of 8 h of the night-time, listed as PLGS-EMPA): 6 h
